Test results: PubChem BioAssay AID1963837 (Molecular Pharmacology Branch, DTP, NCI, 2024)

tested on: 843126-344-R-J1-PDC complex spheroid viability; assay: Anticancer human tumor 843126-344-R-J1-PDC patient-derived melanoma cell line growth inhibition [POLQ]; details: second compound 10 µM; first compound 0.0316 µM; stronger effect = lower value
How it was run: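 Patient-derived tumour cells were co-cultured with HUVEC and mesenchymal stem cells as multicellular spheroids at 37 °C. They were treated with POLQ inhibitors (novobiocin, ART-558, RP6685) alone or combined with other agents. Top concentrations were at or near clinical Cmax (otherwise 10 microM; SN-38 at 1 microM), decreasing in half-log steps.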
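Further: spheroids exposed to drugs for seven days before readout.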

SMILES	viability, T/C [%]
C=CC(=O)N1CCN(c2nc(=O)n(-c3c(C)ccnc3C(C)C)c3nc(-c4c(O)cccc4F)c(F)cc23)C(C)C1 (configuration not stated) + Cc1cccc(N(C)C(=O)C2C(O)CCN2c2nc(C)cc(C(F)(F)F)c2C#N)c1	77.1
CC(C)n1c(=O)n(C)c2cnc3cc(F)c(-c4ccc(OCCCN5CCCCC5)nc4)cc3c21 + Cc1cccc(N(C)C(=O)C2C(O)CCN2c2nc(C)cc(C(F)(F)F)c2C#N)c1	93.4
COc1cc2cc(C(=O)CCC(=O)O)sc2cc1OC + Nc1ccc(C#CCN(C(=O)Cc2ncc(C(F)(F)F)cc2C(F)(F)F)c2ccc(F)cc2)nn1	77.2
CC1COCCN1c1cc(-c2ccnn2C)c2ccnc(-c3ccn[nH]3)c2n1 (configuration not stated) + Nc1ccc(C#CCN(C(=O)Cc2ncc(C(F)(F)F)cc2C(F)(F)F)c2ccc(F)cc2)nn1	73.4

same assay, conditions: second compound 10 µM; first compound 0.1 µM; stronger effect = lower value

SMILES	viability, T/C [%]
CC1COCCN1c1cc(C2(S(C)(=N)=O)CC2)nc(-c2ccnc3[nH]ccc23)n1 (configuration not stated) + Cc1cccc(N(C)C(=O)C2C(O)CCN2c2nc(C)cc(C(F)(F)F)c2C#N)c1	70
C=CCn1c(=O)c2cnc(Nc3ccc(N4CCN(C)CC4)cc3)nc2n1-c1cccc(C(C)(C)O)n1 + Cc1cccc(N(C)C(=O)C2C(O)CCN2c2nc(C)cc(C(F)(F)F)c2C#N)c1	94.1
CNCc1ccc(-c2[nH]c3cc(F)cc4c3c2CCNC4=O)cc1 + COC1C(OC(N)=O)C(O)C(Oc2ccc3c(O)c(NC(=O)c4ccc(O)c(CC=C(C)C)c4)c(=O)oc3c2C)OC1(C)C	97
C=CC(=O)N1CCN(c2nc(=O)n(-c3c(C)ccnc3C(C)C)c3nc(-c4c(O)cccc4F)c(F)cc23)C(C)C1 (configuration not stated) + Cc1cccc(N(C)C(=O)C2C(O)CCN2c2nc(C)cc(C(F)(F)F)c2C#N)c1	81
CC(C)n1c(=O)n(C)c2cnc3cc(F)c(-c4ccc(OCCCN5CCCCC5)nc4)cc3c21 + Cc1cccc(N(C)C(=O)C2C(O)CCN2c2nc(C)cc(C(F)(F)F)c2C#N)c1	90.2
COc1cc2cc(C(=O)CCC(=O)O)sc2cc1OC + Nc1ccc(C#CCN(C(=O)Cc2ncc(C(F)(F)F)cc2C(F)(F)F)c2ccc(F)cc2)nn1	84.3
CC1COCCN1c1cc(-c2ccnn2C)c2ccnc(-c3ccn[nH]3)c2n1 (configuration not stated) + Nc1ccc(C#CCN(C(=O)Cc2ncc(C(F)(F)F)cc2C(F)(F)F)c2ccc(F)cc2)nn1	66.4

same assay, conditions: second compound 10 µM; first compound 0.316 µM; stronger effect = lower value

SMILES	viability, T/C [%]
CC1COCCN1c1cc(C2(S(C)(=N)=O)CC2)nc(-c2ccnc3[nH]ccc23)n1 (configuration not stated) + Cc1cccc(N(C)C(=O)C2C(O)CCN2c2nc(C)cc(C(F)(F)F)c2C#N)c1	91
C=CCn1c(=O)c2cnc(Nc3ccc(N4CCN(C)CC4)cc3)nc2n1-c1cccc(C(C)(C)O)n1 + Cc1cccc(N(C)C(=O)C2C(O)CCN2c2nc(C)cc(C(F)(F)F)c2C#N)c1	102
CNCc1ccc(-c2[nH]c3cc(F)cc4c3c2CCNC4=O)cc1 + COC1C(OC(N)=O)C(O)C(Oc2ccc3c(O)c(NC(=O)c4ccc(O)c(CC=C(C)C)c4)c(=O)oc3c2C)OC1(C)C	81
C=CC(=O)N1CCN(c2nc(=O)n(-c3c(C)ccnc3C(C)C)c3nc(-c4c(O)cccc4F)c(F)cc23)C(C)C1 (configuration not stated) + Cc1cccc(N(C)C(=O)C2C(O)CCN2c2nc(C)cc(C(F)(F)F)c2C#N)c1	89.2
CC(C)n1c(=O)n(C)c2cnc3cc(F)c(-c4ccc(OCCCN5CCCCC5)nc4)cc3c21 + Cc1cccc(N(C)C(=O)C2C(O)CCN2c2nc(C)cc(C(F)(F)F)c2C#N)c1	89.1
COc1cc2cc(C(=O)CCC(=O)O)sc2cc1OC + Nc1ccc(C#CCN(C(=O)Cc2ncc(C(F)(F)F)cc2C(F)(F)F)c2ccc(F)cc2)nn1	92.2
CC1COCCN1c1cc(-c2ccnn2C)c2ccnc(-c3ccn[nH]3)c2n1 (configuration not stated) + Nc1ccc(C#CCN(C(=O)Cc2ncc(C(F)(F)F)cc2C(F)(F)F)c2ccc(F)cc2)nn1	52.8

same assay, conditions: second compound 10 µM; first compound 1 µM; stronger effect = lower value

SMILES	viability, T/C [%]
CC1COCCN1c1cc(C2(S(C)(=N)=O)CC2)nc(-c2ccnc3[nH]ccc23)n1 (configuration not stated) + Cc1cccc(N(C)C(=O)C2C(O)CCN2c2nc(C)cc(C(F)(F)F)c2C#N)c1	83.3
C=CCn1c(=O)c2cnc(Nc3ccc(N4CCN(C)CC4)cc3)nc2n1-c1cccc(C(C)(C)O)n1 + Cc1cccc(N(C)C(=O)C2C(O)CCN2c2nc(C)cc(C(F)(F)F)c2C#N)c1	83.6
CNCc1ccc(-c2[nH]c3cc(F)cc4c3c2CCNC4=O)cc1 + COC1C(OC(N)=O)C(O)C(Oc2ccc3c(O)c(NC(=O)c4ccc(O)c(CC=C(C)C)c4)c(=O)oc3c2C)OC1(C)C	100
C=CC(=O)N1CCN(c2nc(=O)n(-c3c(C)ccnc3C(C)C)c3nc(-c4c(O)cccc4F)c(F)cc23)C(C)C1 (configuration not stated) + Cc1cccc(N(C)C(=O)C2C(O)CCN2c2nc(C)cc(C(F)(F)F)c2C#N)c1	89.5
CC(C)n1c(=O)n(C)c2cnc3cc(F)c(-c4ccc(OCCCN5CCCCC5)nc4)cc3c21 + Cc1cccc(N(C)C(=O)C2C(O)CCN2c2nc(C)cc(C(F)(F)F)c2C#N)c1	77.9
COc1cc2cc(C(=O)CCC(=O)O)sc2cc1OC + Nc1ccc(C#CCN(C(=O)Cc2ncc(C(F)(F)F)cc2C(F)(F)F)c2ccc(F)cc2)nn1	79.1
CC1COCCN1c1cc(-c2ccnn2C)c2ccnc(-c3ccn[nH]3)c2n1 (configuration not stated) + Nc1ccc(C#CCN(C(=O)Cc2ncc(C(F)(F)F)cc2C(F)(F)F)c2ccc(F)cc2)nn1	43.9

same assay, conditions: second compound 10 µM; first compound 3.16 µM; stronger effect = lower value

SMILES	viability, T/C [%]
CC1COCCN1c1cc(C2(S(C)(=N)=O)CC2)nc(-c2ccnc3[nH]ccc23)n1 (configuration not stated) + Cc1cccc(N(C)C(=O)C2C(O)CCN2c2nc(C)cc(C(F)(F)F)c2C#N)c1	72.2
CNCc1ccc(-c2[nH]c3cc(F)cc4c3c2CCNC4=O)cc1 + COC1C(OC(N)=O)C(O)C(Oc2ccc3c(O)c(NC(=O)c4ccc(O)c(CC=C(C)C)c4)c(=O)oc3c2C)OC1(C)C	85.9
C=CC(=O)N1CCN(c2nc(=O)n(-c3c(C)ccnc3C(C)C)c3nc(-c4c(O)cccc4F)c(F)cc23)C(C)C1 (configuration not stated) + Cc1cccc(N(C)C(=O)C2C(O)CCN2c2nc(C)cc(C(F)(F)F)c2C#N)c1	83.5
CC(C)n1c(=O)n(C)c2cnc3cc(F)c(-c4ccc(OCCCN5CCCCC5)nc4)cc3c21 + Cc1cccc(N(C)C(=O)C2C(O)CCN2c2nc(C)cc(C(F)(F)F)c2C#N)c1	81.9
COc1cc2cc(C(=O)CCC(=O)O)sc2cc1OC + Nc1ccc(C#CCN(C(=O)Cc2ncc(C(F)(F)F)cc2C(F)(F)F)c2ccc(F)cc2)nn1	92.7
CC1COCCN1c1cc(-c2ccnn2C)c2ccnc(-c3ccn[nH]3)c2n1 (configuration not stated) + Nc1ccc(C#CCN(C(=O)Cc2ncc(C(F)(F)F)cc2C(F)(F)F)c2ccc(F)cc2)nn1	36.9

same assay, conditions: second compound 10 µM; first compound 10 µM; stronger effect = lower value

SMILES	viability, T/C [%]
CC1COCCN1c1cc(C2(S(C)(=N)=O)CC2)nc(-c2ccnc3[nH]ccc23)n1 (configuration not stated) + Cc1cccc(N(C)C(=O)C2C(O)CCN2c2nc(C)cc(C(F)(F)F)c2C#N)c1	55.3
CNCc1ccc(-c2[nH]c3cc(F)cc4c3c2CCNC4=O)cc1 + COC1C(OC(N)=O)C(O)C(Oc2ccc3c(O)c(NC(=O)c4ccc(O)c(CC=C(C)C)c4)c(=O)oc3c2C)OC1(C)C	100
C=CC(=O)N1CCN(c2nc(=O)n(-c3c(C)ccnc3C(C)C)c3nc(-c4c(O)cccc4F)c(F)cc23)C(C)C1 (configuration not stated) + Cc1cccc(N(C)C(=O)C2C(O)CCN2c2nc(C)cc(C(F)(F)F)c2C#N)c1	70.1
CC(C)n1c(=O)n(C)c2cnc3cc(F)c(-c4ccc(OCCCN5CCCCC5)nc4)cc3c21 + Cc1cccc(N(C)C(=O)C2C(O)CCN2c2nc(C)cc(C(F)(F)F)c2C#N)c1	61.2
COc1cc2cc(C(=O)CCC(=O)O)sc2cc1OC + Nc1ccc(C#CCN(C(=O)Cc2ncc(C(F)(F)F)cc2C(F)(F)F)c2ccc(F)cc2)nn1	94.1
CC1COCCN1c1cc(-c2ccnn2C)c2ccnc(-c3ccn[nH]3)c2n1 (configuration not stated) + Nc1ccc(C#CCN(C(=O)Cc2ncc(C(F)(F)F)cc2C(F)(F)F)c2ccc(F)cc2)nn1	29.1
